From patent publication US11642336B2, “5-HT2A agonists for use in treatment of depression” (priority 2019, dated 2023)
pEC50: −log10 of the molar value. Where a name gives a salt, the structure may show the parent alone. Read-outs that look alike come from different tables or passages of the source. Marks after values point to notes of the source that are not given here.

Legend:
Format in all cases: cell-based
5-HT2B = 5-HT2B (Homo sapiens (Human), UniProt P41595); assay: IP assay (Eurofins, IP1 HTRF), HEK293 cells; conditions: for 5-HT2B Rmax: % of Rmax of 5-HT; for pEC50: duplicate determinations, read-out: 5-HT2B EC50;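 on all read-outs here: agonist effect read as cellular IP1 production by HTRF using a europium cryptate anti-IP1 antibody donor and D2-labeled IP1 acceptor, eight compound concentrations in each cell line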
Experimental: The agonist properties of the compounds were characterized at HEK293 cell lines expressing the human 5-HT2A, human 5-HT2B or human 5-HT2C receptors in an IP assay essentially as previously described.^19 The testing was performed by Eurofins. In the assay, the agonist activity of the compound at the receptors is investigated by measuring its effect on IP1 production in the cell using the Homogeneous Time Resolved Fluorescence (HTRF) detection method. […] Following incubation, the cells were lysed, and the fluorescence acceptor (D2-labeled IP1) and fluorescence donor (anti-IP1 antibody labeled with europium cryptate) were added. […] The test compounds were characterized in eight different concentrations in duplicate at each of the three cell lines.

human 5-HT2A [1] = target: T1, human 5-HT2A (Homo sapiens (Human), UniProt P28223); assay: cell-based; conditions: IP assay; for 5-HT2A Rmax: % of Rmax of 5-HT; for pEC50: duplicate determinations
human 5-HT2A [2] = target: T1, human 5-HT2A; assay: cell-based; conditions: for EC50 / pEC50: agonist potency, n = 3-4; for EC50: read-out: 5-HT2A [pEC50 ± S.E.M.] (converted); for pEC50: read-out: 5-HT2A EC50; for Selectivity EC50 5-HT2C/EC50 5-HT2A: Ca2+/Fluo-4 assay, bounds are conservative estimates; for loss of potency at 5-HT2A compared to compound 8 (factor): nitrogen substituents (tertiary amines)
5-HT2C = 5-HT2C (Homo sapiens (Human), UniProt P28335); assay: Ca2+/Fluo-4 assay, stable h5-HT2C-HEK293 cell line; conditions: for pEC50 / EC50: agonist potency, n = 3-4; for 5-HT2C Rmax ± S.E.M: % of the Rmax of 5-HT; for EC50: read-out: 5-HT2C [pEC50 ± S.E.M.] (converted); for 5-HT2C agonist activity (n.a./w.a.): tested up to 50 μM;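 on all read-outs here: Agonist-induced intracellular Ca2+ rise read by Fluo-4 fluorescence in HEK293 cells stably expressing the human 5-HT2C receptor, each compound run in duplicate on three or more occasions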
Sequence of 5-HT2C (P28335 whole entry, looked up): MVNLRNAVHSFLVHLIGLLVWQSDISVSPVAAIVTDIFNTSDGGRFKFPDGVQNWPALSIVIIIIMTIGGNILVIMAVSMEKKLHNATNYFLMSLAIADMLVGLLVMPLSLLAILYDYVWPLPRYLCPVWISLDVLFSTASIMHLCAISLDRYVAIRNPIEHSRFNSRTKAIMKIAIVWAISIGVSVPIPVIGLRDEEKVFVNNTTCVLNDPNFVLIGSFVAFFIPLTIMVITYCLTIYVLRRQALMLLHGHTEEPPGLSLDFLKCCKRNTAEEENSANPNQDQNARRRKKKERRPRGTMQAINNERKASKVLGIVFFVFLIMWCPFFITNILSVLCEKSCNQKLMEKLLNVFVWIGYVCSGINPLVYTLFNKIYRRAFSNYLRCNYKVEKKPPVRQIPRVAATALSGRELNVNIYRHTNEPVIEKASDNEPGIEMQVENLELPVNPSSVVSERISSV

Sequence of 5-HT2B (P41595 whole entry, looked up): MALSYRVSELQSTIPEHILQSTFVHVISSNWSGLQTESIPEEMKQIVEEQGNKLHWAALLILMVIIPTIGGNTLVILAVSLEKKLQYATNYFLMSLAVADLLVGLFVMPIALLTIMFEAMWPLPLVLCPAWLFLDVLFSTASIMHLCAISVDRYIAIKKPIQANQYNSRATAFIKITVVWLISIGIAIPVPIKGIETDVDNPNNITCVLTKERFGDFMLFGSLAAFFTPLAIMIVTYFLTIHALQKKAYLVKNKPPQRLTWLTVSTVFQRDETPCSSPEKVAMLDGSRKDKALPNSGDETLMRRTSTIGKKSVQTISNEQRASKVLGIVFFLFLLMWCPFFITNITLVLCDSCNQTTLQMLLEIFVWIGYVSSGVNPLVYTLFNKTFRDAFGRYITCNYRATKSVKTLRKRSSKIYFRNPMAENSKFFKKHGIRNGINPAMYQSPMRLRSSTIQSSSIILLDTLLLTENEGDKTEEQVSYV

Row | SMILES | 5-HT2A Rmax ± S.E.M (human 5-HT2A [2]; % of the Rmax of 5-HT) | EC50 (human 5-HT2A [2]) | 5-HT2C Rmax ± S.E.M (5-HT2C) | pEC50 (human 5-HT2A [2]) | pEC50 (5-HT2C; read-out: 5-HT2C EC50) | Selectivity EC50 5-HT2C/EC50 5-HT2A (human 5-HT2A [2]) | further results
1 | CCSc1cc(OC)c([C@@H]2CCCNC2)cc1OC.Cl [Compound 28, (S)-3-(2,5-dimethoxy-4-(ethylthio)phenyl)piperidine hydrochloride] | – | – | – | – | – | – | 5-HT2B Rmax (5-HT2B): 55%; pEC50 (5-HT2B): 6.62; 5-HT2A Rmax (human 5-HT2A [1]): 62%; pEC50 (human 5-HT2A [1]): 6.74
2 | CCc1cc(OC)c([C@@H]2CCCNC2)cc1OC.Cl [Compound 32, (S)-3-(4-ethyl-2,5-dimethoxyphenyl)piperidine hydrochloride] | 79 ± 4% | 40.7 nM | – | – | – | – | 5-HT2B Rmax (5-HT2B): 54%; pEC50 (5-HT2B): 6.55; 5-HT2A Rmax (human 5-HT2A [1]): 85%; pEC50 (human 5-HT2A [1]): 6.96
3 | COc1cc(CC(C)N)c(OC)cc1I (stereo not drawn) [drawing 22, reference compound] | – | – | 83 ± 8% | – | – | – | 5-HT2A Rmax ± S.E.M (human 5-HT2A [2]): 88 ± 7%; pEC50 (5-HT2C; 5-HT2C [pEC50 ± S.E.M.]): 8.47
4 | CCOc1cc(C(F)(F)F)c(OC)cc1[C@@H]1CCCNC1.Cl [Compound 30, (S)-3-(2-ethoxy-5-methoxy-4-(trifluoromethyl)phenyl)piperidine hydrochloride] | 40 ± 3% | 38 nM | – | – | – | – | 5-HT2B Rmax (5-HT2B): 26%; pEC50 (5-HT2B): 5.92; 5-HT2A Rmax (human 5-HT2A [1]): 35%; pEC50 (human 5-HT2A [1]): 6.85
5 | COc1cc([C@H]2CCCNC2)c(OC)cc1Br [Compound 11, (R)-3-(4-bromo-2,5-dimethoxyphenyl)piperidine] | – | – | – | 6.43 | 5.72 | – | –
6 | COc1cc([C@H]2CCNC2)c(OC)cc1Br [Compound 3, (R)-3-(4-bromo-2,5-dimethoxyphenyl)pyrrolidine] | 57 ± 3% | 7.76 nM | 73 ± 3% | 8.28 | – | 4.9 | EC50 (5-HT2C): 25.7 nM
7 | COc1cc(C(F)(F)F)c(OC)cc1[C@@H]1CCCN(C)C1 [Compound 61, (S)-3-(2,5-dimethoxy-4-(trifluoromethyl)phenyl)-1-methylpiperidine] | 19 ± 2% | 398 nM | – | 6.41 | 6.04 | – | loss of potency at 5-HT2A compared to compound 8 (factor) (human 5-HT2A [2]): ~20
8 | COc1cc(C(F)(F)F)c(OC)cc1[C@H]1CCNC1 [Compound 5, (R)-3-(2,5-dimethoxy-4-(trifluoromethyl)phenyl)pyrrolidine] | 45 ± 1% | 10.5 nM | 65 ± 4% | 7.96 | – | 3.7 | EC50 (5-HT2C): 40.7 nM
9 | CCSc1cc(OC)c([C@H]2CCCNC2)cc1OC [Compound 27, (R)-3-(2,5-dimethoxy-4-(ethylthio)phenyl)piperidine hydrochloride] | – | 186 nM | – | 6.72 | 6.11 | – | –
10 | CCN1CCC[C@H](c2cc(OC)c(C(F)(F)F)cc2OC)C1 [Compound 58, (R)-3-(2,5-dimethoxy-4-(trifluoromethyl)phenyl)-1-ethylpiperidine] | – | – | – | – | – | – | 5-HT2A agonist activity (n.a./w.a.) (human 5-HT2A [2]; tested up to 50 μM): w.a. [@ 2-10-50; 5-HT2C agonist activity (n.a./w.a.) (5-HT2C): w.a.
11 | CCOc1cc(C(F)(F)F)c(OC)cc1[C@H]1CCCNC1.Cl [Compound 29, (R)-3-(2-ethoxy-5-methoxy-4-(trifluoromethyl)phenyl)piperidine hydrochloride] | 77 ± 7% | – | – | 6.39 | 5.57 | – | EC50 (5-HT2C): 2750 nM
12 | COc1cc([C@@H]2CCCNC2)ccc1C(F)(F)F.Cl [Compound 49, (S)-3-(3-methoxy-4-(trifluoromethyl)phenyl)piperidine Hydrochloride] | 65 ± 3% | 2450 nM | 35 ± 3% | 5.60 | 5.89 | 0.51 | EC50 (5-HT2C): 1260 nM
13 | COc1cc(C(F)(F)F)c(SC)cc1[C@H]1CCCNC1.Cl [Compound 44, (R)-3-(2-methoxy-5-(methylthio)-4-(trifluoromethyl)phenyl)piperidine hydrochloride] | 96 ± 6% | – | 50 ± 2% | 7.15 | 6.18 | 9.3 | –
14 | Br.COc1cc([C@@H]2CCNC2)c(OC)cc1Br [Compound 4, (S)-3-(4-bromo-2,5-dimethoxyphenyl)pyrrolidine Hydrobromide] | 39 ± 4% | – | 16 ± 3% | 8.11 | – | 2.3 | EC50 (5-HT2C): 17.8 nM
15 | COc1cc([C@H]2CCCNC2)c(OC2CC2)cc1C(F)(F)F [Compound 54, (R)-3-(2-cyclopropoxy-5-methoxy-4-(trifluoromethyl)phenyl)piperidine hydrochloride] | 76 ± 4% | 1780 nM | ~46-63^c % | 5.74 | 5.00 to 5.52 | – | –
16 | CCN1CCC[C@@H](c2cc(OC)c(C(F)(F)F)cc2OC)C1 [Compound 59, (S)-3-(2,5-dimethoxy-4-(trifluoromethyl)phenyl)-1-ethylpiperidine] | 44 ± 3% | – | – | 5.82 | – | >30^e | loss of potency at 5-HT2A compared to compound 8 (factor) (human 5-HT2A [2]): ~80; 5-HT2C agonist activity (n.a./w.a.) (5-HT2C): w.a.
17 | COc1cc(C(F)(F)F)c(F)cc1[C@H]1CCCNC1.Cl [Compound 50, (R)-3-(5-fluoro-2-methoxy-4-(trifluoromethyl)phenyl)piperidine hydrochloride] | 78 ± 6% | – | 40 ± 8% | 6.19 | 5.74 | 2.8 | EC50 (5-HT2C): 1780 nM
18 | COc1cc(C2CNC2)c(OC)cc1Br.Cl [Compound 1, 3-(4-bromo-2,5-dimethoxyphenyl)azetidine hydrochloride] | 97 ± 3% | 1.58 nM | 90 ± 3% | – | 8.24 | 3.6 | –
19 | COc1cc(C(F)(F)F)c(OC)cc1C1CNC1.Cl [Compound 2, 3-(2,5-dimethoxy-4-(trifluoromethyl)phenyl)azetidine Hydrochloride] | 95 ± 2% | 1 nM | 87 ± 4% | – | 8.28 | 5.2 | –
20 | COc1cc([C@H]2CCCNC2)c(OC)cc1Cl [Compound 9, (R)-3-(4-Chloro-2,5-dimethoxyphenyl)piperidine] | – | – | – | 6.16 | 5.74 | – | EC50 (5-HT2C): 1780 nM
21 | COc1cc([C@H]2CCCNC2)c(OC)cc1C#N [Compound 15, (R)-2,5-dimethoxy-4-(piperidin-3-yl)benzonitrile] | – | – | ~13-17^c % | 5.66 | ~5.00 | – | –
22 | CCc1cc(OC)c([C@H]2CCCNC2)cc1OC [Compound 31, (R)-3-(4-ethyl-2,5-dimethoxyphenyl)piperidine hydrochloride] | – | 115 nM | – | 6.96 | 6.19 | – | –
23 | COc1cc(C(F)(F)F)ccc1[C@H]1CCCNC1 [Compound 52, (R)-3-(2-methoxy-4-(trifluoromethyl)phenyl)piperidine hydrochloride] | 77 ± 2% | – | – | 6.32 | 5.85 | – | –
24 | COc1cc([C@H]2CCCNC2)c(OC)cc1C [Compound 23, (R)-3-(2,5-dimethoxy-4-methylphenyl)piperidine hydrochloride] | – | 263 nM | – | 6.59 | 5.92 | – | –
